Laboratory results reported in patent publication US20120022054A1, “NOVEL SUBSTITUTED ARYL DERIVATIVES, THEIR PROCESS OF PREPARATION AND THEIR THERAPEUTICAL USES AS ANTI-HIV AGENTS” (priority 2008, published 2012).
Like-named read-outs stand apart in the source and are kept apart here.

Legend:
[1] = test system: Env-deleted NL4-3 vector virus pseudotyped with the VSV g envelope; assay: microbe, parasite or virus in culture; format: cell-based, HIV-1; settings: Vesicular stomatitis virus, NL43, SUP-T1, 48 h, read-out: EC50 for antiviral activity (50% inhibition of luciferase activity)
NL4-3 strain of HIV-1 = assay: Multiple cycle infection assay of CAp24 antigen production; format: cell-based; settings: Human immunodeficiency virus 1, NL43, SUP-T1, 96 h, multiple cycle infection with NL4-3 virus, SupT1, MT4 or PBMC, MOI 0.01, day 4 and day −6 post-infection, read-out: EC50 for antiviral activity (50% inhibition of CA p24 production)

Structure (SMILES) | EC50 [1] | EC50 (NL4-3 strain of HIV-1; threshold below 5 μM) | EC50 (NL4-3 strain of HIV-1; threshold below 500 nM)
CN(Cc1ccccc1Cl)C(=O)CCCSc1ccc(O)cc1 [Example 3, N-(2-Chlorobenzyl)-4-[(4-hydroxyphenyl)thio]-N-methylbutanamide] | < 5 µM | < 5 µM | –
CN(C(=O)CCCSc1ccc(O)cc1)C(c1ccccc1)c1ccccc1 [Example 10, N-Benzhydryl-4-[(4-hydroxyphenyl)thio]-N-methylbutanamide] | < 5 µM | < 5 µM | –
CN(Cc1ccccc1N1CCOCC1)C(=O)CCCSc1ccc(O)cc1 [Example 11, 4-[(4-Hydroxyphenyl)thio]-N-methyl-N-(2-morpholin-4-ylbenzyl)butanamide] | < 5 µM | < 5 µM | –
COc1ccccc1CN(C)C(=O)CCCCSc1ccc(O)cc1 [Example 12, 5-[(4-Hydroxyphenyl)thio]-N-(2-methoxybenzyl)-N-methylpentanamide] | < 5 µM | < 5 µM | –
CN1CCN(c2ccccc2CN(C)C(=O)CCCSc2ccc(O)cc2)CC1 [Example 13, 4-[(4-Hydroxyphenyl)thio]-N-methyl-N-[2-(4-methylpiperazin-1-yl)benzyl]-butanamide] | < 5 µM | < 5 µM | –
CN(Cc1ccccc1Cl)C(=O)CCCSc1ccc(F)cc1 [Example 14, N-(2-Chlorobenzyl)-4-[(4-fluorophenyl)thio]-N-methylbutanamide] | < 5 µM | < 5 µM | –
COc1ccc(Cl)cc1CN(C)C(=O)CCCSc1ccc(O)cc1 [Example 70, N-(5-Chloro-2-methoxybenzyl)-4-[(4-hydroxyphenyl)thio]-N-methylbutanamide] | – | < 5 µM | < 0.5 µM
COc1ccc(F)cc1CN(C)C(=O)CCCSc1ccc(O)cc1 [Example 71, N-(5-Fluoro-2-methoxybenzyl)-4-[(4-hydroxyphenyl)thio]-N-methylbutanamide] | – | < 5 µM | < 0.5 µM
COc1ccc(F)cc1CN(C)C(=O)CCCSc1ccc(F)cc1 [Example 84, N-(5-Fluoro-2-methoxybenzyl)-4-[(4-fluorophenyl)thio]-N-methylbutanamide] | – | < 5 µM | < 0.5 µM
CC(C)Oc1ccc(F)cc1CN(C)C(=O)CCCSc1ccc(F)cc1 [Example 85, N-(5-Fluoro-2-isopropoxybenzyl)-4-[(4-fluorophenyl)thio]-N-methylbutanamide] | – | < 5 µM | < 0.5 µM
COc1ccc(F)cc1CN(C)C(=O)CCC[S+]([O-])c1ccc(O)cc1 (stereo not shown) [Example 103, N-(5-fluoro-2-methoxybenzyl)-4-[(4-hydroxyphenyl)sulfinyl]-N-methylbutanamide] | – | < 5 µM | < 0.5 µM
COc1ccc([S+]([O-])CCCC(=O)N(C)Cc2cc(F)ccc2OC)cc1 (stereo not shown) [Example 104, N-(5-fluoro-2-methoxybenzyl)-4-[(4-methoxyphenyl)sulfinyl]-N-methylbutanamide] | – | < 5 µM | < 0.5 µM
COc1ccc(F)cc1CN(C)C(=O)CCCn1ccc2cc(F)ccc21 [Example 106, 4-(5-fluoro-1H-indol-1-yl)-N-(5-fluoro-2-methoxybenzyl)-N-methylbutanamide] | – | < 5 µM | < 0.5 µM
COc1ccc(F)cc1CN(C)C(=O)CCCn1ccc2cc(Cl)ccc21 [Example 107, 4-(5-chloro-1H-indol-1-yl)-N-(5-fluoro-2-methoxybenzyl)-N-methylbutanamide] | – | < 5 µM | < 0.5 µM
COc1ccc(F)cc1CN(C)C(=O)CCCn1ccc2cc(Br)ccc21 [Example 108, 4-(5-bromo-1H-indol-1-yl)-N-(5-fluoro-2-methoxybenzyl)-N-methylbutanamide] | – | < 5 µM | < 0.5 µM
COc1ccc(Cl)cc1CN(C)C(=O)CCCSc1ccc(OC(C)C)cc1 [Example 113, N-(5-chloro-2-methoxybenzyl)-4-[(4-isopropoxyphenyl)thio]-N-methylbutanamide] | – | < 5 µM | < 0.5 µM
COc1ccc([S+]([O-])CCCC(=O)N(C)Cc2cc(Cl)ccc2OC)cc1 (stereo not shown) [Example 116, N-(5-chloro-2-methoxybenzyl)-4-[(4-methoxyphenyl)sulfinyl]-N-methylbutanamide] | – | < 5 µM | < 0.5 µM
COc1ccc([S+]([O-])CCCC(=O)N(C)Cc2cc(F)ccc2OC(C)C)cc1 (stereo not shown) [Example 118, N-(5-fluoro-2-isopropoxybenzyl)-4-[(4-methoxyphenyl)sulfinyl]-N-methylbutanamide] | – | < 5 µM | < 0.5 µM
COc1ccc(C)cc1CN(C)C(=O)CCCn1ccc2cc(F)ccc21 [Example 120, 4-(5-fluoro-1H-indol-1-yl)-N-(2-methoxy-5-methylbenzyl)-N-methylbutanamide] | – | < 5 µM | < 0.5 µM
CN(C(=O)CCCn1ccc2cc(F)ccc21)c1cccc2ccccc12 [Example 123, 4-(5-fluoro-1H-indol-1-yl)-N-methyl-N-1-naphthylbutanamide] | – | < 5 µM | < 0.5 µM

Structure (SMILES) | EC50 [1] | EC50 (NL4-3 strain of HIV-1; threshold below 5 μM) | EC50 (NL4-3 strain of HIV-1; threshold below 500 nM)
COc1ccc(C(=O)CCCC(=O)N(C)Cc2cc(Cl)ccc2OC)cc1 [Example 125, N-(5-chloro-2-methoxybenzyl)-5-(4-methoxyphenyl)-N-methyl-5-oxopentanamide] | – | < 5 µM | < 0.5 µM
CN(C(=O)CCCSc1ccc(F)cc1)c1nccc2ccccc12 [Example 128, 4-[(4-fluorophenyl)thio]-N-isoquinolin-1-yl-N-methylbutanamide] | – | < 5 µM | < 0.5 µM
CN(C(=O)CCC[S+]([O-])c1ccc(F)cc1)c1nccc2ccccc12 (stereo not shown) [Example 129, 4-[(4-fluorophenyl)sulfinyl]-N-isoquinolin-1-yl-N-methylbutanamide] | – | < 5 µM | < 0.5 µM
CN(C(=O)CCCSc1ccc(F)cc1)c1cccc2cccnc12 [Example 130, 4-[(4-fluorophenyl)thio]-N-methyl-N-quinolin-8-ylbutanamide] | – | < 5 µM | < 0.5 µM
COc1ccc(SCCCC(=O)N(C)c2nccc3ccccc23)cc1 [Example 132, N-isoquinolin-1-yl-4-[(4-methoxyphenyl)thio]-N-methylbutanamide] | – | < 5 µM | < 0.5 µM
COc1ccc(F)cc1CN(C)C(=O)CCCSc1ccc(Br)cc1 [Example 145, 4-[(4-Bromophenyl)thio]-N-(5-fluoro-2-methoxybenzyl)-N-methylbutanamide] | – | < 5 µM | < 0.5 µM
CN(Cc1ccccc1N1CCNCC1)C(=O)CCCSc1ccc(O)cc1 [Example 162, 4-[(4-Hydroxyphenyl)thio]-N-methyl-N-(2-piperazin-1-ylbenzyl)butanamide] | – | < 5 µM | < 0.5 µM
CN(C(=O)CCCSc1ccc(F)cc1)c1cccc2ccccc12 [Example 169, 4-[(4-Fluorophenyl)thio]-N-methyl-N-1-naphthylbutanamide] | – | < 5 µM | < 0.5 µM
COc1ccc(F)cc1CN(C)C(=O)CCCn1cc(-c2ccc(F)cc2)cn1 [Example 170, N-(5-Fluoro-2-methoxybenzyl)-4-[4-(4-fluorophenyl)pyrazol-1-yl]-N-methylbutanamide] | – | < 5 µM | < 0.5 µM
COc1ccc(F)cc1CN(C)C(=O)CCCn1cc(-c2ccc(F)cc2)c(C)n1 [Example 171, N-(5-Fluoro-2-methoxybenzyl)-4-[4-(4-fluorophenyl)-3-methylpyrazol-1-yl]-N-methylbutanamide] | – | < 5 µM | < 0.5 µM
COc1ccc(Cl)cc1CN(C)C(=O)CCCn1cc(-c2ccc(F)cc2)cn1 [Example 173, N-(5-Chloro-2-methoxybenzyl)-4-[4-(4-fluorophenyl)pyrazol-1-yl]-N-methylbutanamide] | – | < 5 µM | < 0.5 µM
COc1ccc(-c2cnn(CCCC(=O)N(C)Cc3cc(F)ccc3OC)c2)cc1 [Example 174, N-(5-Fluoro-2-methoxybenzyl)-4-[4-(4-methoxyphenyl)pyrazol-1-yl]-N-methylbutanamide] | – | < 5 µM | < 0.5 µM
COc1ccc(F)cc1CN(C)C(=O)CCCn1cc(-c2ccc(F)cc2C)cn1 [Example 175, N-(5-Fluoro-2-methoxybenzyl)-4-[4-(4-fluoro-2-methylphenyl)pyrazol-1-yl]-N-methylbutanamide] | – | < 5 µM | < 0.5 µM
COc1ccc(F)cc1CN(C)C(=O)CCCn1cc(-c2ccc(O)cc2)cn1 [Example 176, N-(5-Fluoro-2-methoxybenzyl)-4-[4-(4-hydroxyphenyl)pyrazol-1-yl]-N-methylbutanamide] | – | < 5 µM | < 0.5 µM
COc1ccc(F)cc1CN(C)C(=O)CCCn1cc(-c2ccc(C#N)cc2)cn1 [Example 177, N-(5-Fluoro-2-methoxybenzyl)-4-[4-(4-cyanophenyl)pyrazol-1-yl]-N-methylbutanamide] | – | < 5 µM | < 0.5 µM
COc1ccc(F)cc1CN(C)C(=O)CCCn1cc(-c2ccncc2)cn1 [Example 178, N-(5-Fluoro-2-methoxybenzyl)-4-(4-pyridin-4-yl-pyrazol-1-yl)-N-methylbutanamide] | – | < 5 µM | < 0.5 µM
COc1ccc(-c2cnc(CCCC(=O)N(C)Cc3cc(F)ccc3OC)o2)cc1 [Example 180, N-(5-Fluoro-2-methoxybenzyl)-4-[5-(4-methoxyphenyl)oxazol-2-yl]-N-methylbutanamide] | – | < 5 µM | < 0.5 µM
CCOC(=O)c1cc(F)ccc1[S+]([O-])CCCC(=O)N1CCc2ccc(OC)cc21 (stereo not shown) [Example 191, Ethyl 5-fluoro-2-((4-(6-methoxy-2,3-dihydro-1H-indol-1-yl)-4-oxobutyl)sulfinyl)benzoate] | – | < 5 µM | –
CCOC(=O)c1cc(F)ccc1SCCCC(=O)N(C)c1cccc(OC)c1 [Example 195, Ethyl 5-fluoro-2-({4-[(3-methoxyphenyl)(methyl)amino]-4-oxobutyl}thio)benzoate] | < 5 µM | – | –
